Tested on: plasma SPM concentrations in mice
Assay: MTX given intravenously to mice, plasma SPM by LC-MS/MS lipid mediator profiling
Assay type: in vivo
Settings: blood after 1 hour; for plasma 4S,14S-diHDHA concentration in mice, Mean ± SEM / plasma 5S,15S-diHETE concentration in mice, Mean ± SEM / plasma 7S,14S-diHDHA concentration in mice, Mean ± SEM / plasma 7S,14S-diHDPA concentration in mice, Mean ± SEM / plasma 10S,17S-diHDPA concentration in mice, Mean ± SEM / plasma 13,14-dehydro-15-oxo-LXA4 concentration in mice, Mean ± SEM / plasma 14-oxo-MaR1 concentration in mice, Mean ± SEM / plasma 15-oxo-LXA4 concentration in mice, Mean ± SEM / plasma 15R-LXA4 concentration in mice, Mean ± SEM / plasma 15R-LXB4 concentration in mice, Mean ± SEM / plasma 17R-PD1 concentration in mice, Mean ± SEM / plasma 17R-RvD1 concentration in mice, Mean ± SEM / plasma 17R-RvD3 concentration in mice, Mean ± SEM / plasma 22-OH-MaR1 concentration in mice, Mean ± SEM / plasma 22-OH-PD1 concentration in mice, Mean ± SEM / plasma LXA4 concentration in mice, Mean ± SEM / plasma LXB4 concentration in mice, Mean ± SEM / plasma MaR1 concentration in mice, Mean ± SEM / plasma MaR1n-3 DPA concentration in mice, Mean ± SEM / plasma MaR2 concentration in mice, Mean ± SEM / plasma PD1 concentration in mice, Mean ± SEM / plasma PD1n-3 DPA concentration in mice, Mean ± SEM / plasma PDx concentration in mice, Mean ± SEM / plasma RvD1 concentration in mice, Mean ± SEM / plasma RvD1n-3 DPA concentration in mice, Mean ± SEM / plasma RvD2 concentration in mice, Mean ± SEM / plasma RvD2n-3 DPA concentration in mice, Mean ± SEM / plasma RvD3 concentration in mice, Mean ± SEM / plasma RvD4 concentration in mice, Mean ± SEM / plasma RvD5 concentration in mice, Mean ± SEM / plasma RvD5n-3 DPA concentration in mice, Mean ± SEM / plasma RvD6 concentration in mice, Mean ± SEM / plasma RvE1 concentration in mice, Mean ± SEM / plasma RvE2 concentration in mice, Mean ± SEM / plasma RvE3 concentration in mice, Mean ± SEM / plasma RvT1 concentration in mice, Mean ± SEM / plasma RvT2 concentration in mice, Mean ± SEM / plasma RvT3 concentration in mice, Mean ± SEM / plasma RvT4 concentration in mice, Mean ± SEM: intravenous injection
Description: Plasma was obtained by centrifugation and peripheral blood SPM concentrations were determined using LC-MS/MS based lipid mediator profiling. (A) OPLS-DA analysis of plasma SPM concentrations. Colored spherical areas display 95% confidence region of respective incubations. […] Results for A, B are representative of n=6 donors from three distinct experiments. […] Blood was then collected after 1 hour and SPM concentrations were determined using LC-MS/MS based lipid mediator profiling (D) oPLS-DA analysis of plasma SPM concentrations. Colored areas display 95% confidence region of respective incubations. […] Results are representative of n=4 mice per group and experiments were conducted on two distinct occasions.
Plasma was obtained from peripheral blood of healthy volunteers, patients and mouse following centrifugation at 1500×g for 10 min at room temperature. Paws were collected and immediately transferred to liquid nitrogen prior to homogenization in 1 ml ice cold MeOH and homogenized using a glass dounce. All samples for LC-MS/MS-based profiling were extracted using solid-phase extraction columns as in Walker, M. E., Souza, P. R., Colas, R. A. & Dalli, J. “13-Series resolvins mediate the leukocyte-platelet actions of atorvastatin and pravastatin in inflammatory arthritis.” FASEB J 31, 3636-3648 (2017), the contents of which are incorporated herein by reference. Prior to sample extraction, deuterated internal standards, representing each region in the chromatographic analysis (500 pg each) were added to facilitate quantification. Samples were kept at −20° C. for a minimum of 45 min to allow protein precipitation. Supernatants were subjected to solid phase extraction, methyl formate fraction collected, brought to dryness and suspended in phase (methanol/water, 1:1, vol/vol) for injection on a Shimadzu LC-20AD HPLC and a Shimadzu SIL-20AC autoinjector, paired with a QTrap 5500 or QTrap 6500 plus (Sciex). An Agilent Poroshell 120 EC-C18 column (100 mm×4.6 mm×2.7 μm) was kept at 50° C. and mediators eluted using a mobile phase consisting of methanol/water/acetic acid of 20:80:0.01 (vol/vol/vol) that was ramped to 50:50:0.01 (vol/vol/vol) over 0.5 min and then to 80:20:0.01 (vol/vol/vol) from 2 min to 11 min, maintained till 14.5 min and then rapidly ramped to 98:2:0.01 (vol/vol/vol) for the next 0.1 min. This was subsequently maintained at 98:2:0.01 (vol/vol/vol) for 5.4 min, and the flow rate was maintained at 0.5 ml/min. QTrap 5500 or QTrap 6500 plus were operated using a multiple reaction monitoring method as in Walker, M. E., Souza, P. R., Colas, R. A. & Dalli, J. “13-Series resolvins mediate the leukocyte-platelet actions of atorvastatin and pravastatin in inflammatory arthritis.” FASEB J 31, 3636-3648 (2017), the contents of which are incorporated herein by reference. Each lipid mediator was identified using established criteria including matching retention time to synthetic or authentic standards and at least 6 diagnostic ions (Walker, M. E., Souza, P. R., Colas, R. A. & Dalli, J. “13-Series resolvins mediate the leukocyte-platelet actions of atorvastatin and pravastatin in inflammatory arthritis.” FASEB J 31, 3636-3648 (2017), the contents of which are incorporated herein by reference).

[1] = mice, MTX 1 μg/mouse or 22 μg/mouse intravenous

`CN(Cc1cnc2nc(N)nc(N)c2n1)c1ccc(C(=O)N[C@@H](CCC(=O)O)C(=O)O)cc1` [MTX, Methotrexate] was tested, and the “plasma 4S,14S-diHDHA concentration in mice, Mean ± SEM” value (1 μg/mouse) was 18.38 ± 6.59, the “plasma 5S,15S-diHETE concentration in mice, Mean ± SEM” value (1 μg/mouse) was 14.61 ± 6.53 and the “plasma 7S,14S-diHDHA concentration in mice, Mean ± SEM” value (1 μg/mouse) was 0.00 ± 0.00. For the same molecule, the “plasma 7S,14S-diHDPA concentration in mice, Mean ± SEM” value (1 μg/mouse) was 0.00 ± 0.00, the “plasma 10S,17S-diHDPA concentration in mice, Mean ± SEM” value (1 μg/mouse) was 2.41 ± 0.97 and the “plasma 13,14-dehydro-15-oxo-LXA4 concentration in mice, Mean ± SEM” value (1 μg/mouse) was 0.65 ± 0.21. The “plasma 14-oxo-MaR1 concentration in mice, Mean ± SEM” value (1 μg/mouse) was 3.44 ± 0.37, the “plasma 15-oxo-LXA4 concentration in mice, Mean ± SEM” value (1 μg/mouse) was 3.53 ± 1.62 and the “plasma 15R-LXA4 concentration in mice, Mean ± SEM” value (1 μg/mouse) was 6.41 ± 0.78. For the same molecule, the “plasma 15R-LXB4 concentration in mice, Mean ± SEM” value (1 μg/mouse) was 3.90 ± 1.80, the “plasma 17R-PD1 concentration in mice, Mean ± SEM” value (1 μg/mouse) was 10.50 ± 4.91 and the “plasma 17R-RvD1 concentration in mice, Mean ± SEM” value (1 μg/mouse) was 0.00 ± 0.00. The “plasma 17R-RvD3 concentration in mice, Mean ± SEM” value (1 μg/mouse) was 4.26 ± 0.87, the “plasma 22-OH-MaR1 concentration in mice, Mean ± SEM” value (1 μg/mouse) was 0.00 ± 0.00 and the “plasma 22-OH-PD1 concentration in mice, Mean ± SEM” value (1 μg/mouse) was 0.00 ± 0.00. The “plasma LXA4 concentration in mice, Mean ± SEM” value (1 μg/mouse) was 1.06 ± 0.20, the “plasma LXB4 concentration in mice, Mean ± SEM” value (1 μg/mouse) was 16.93 ± 1.92 and the “plasma MaR1 concentration in mice, Mean ± SEM” value (1 μg/mouse) was 71.74 ± 20.71. The “plasma MaR1n-3 DPA concentration in mice, Mean ± SEM” value (1 μg/mouse) was 0.83 ± 0.34, the “plasma MaR2 concentration in mice, Mean ± SEM” value (1 μg/mouse) was 2.05 ± 0.39 and the “plasma PD1 concentration in mice, Mean ± SEM” value (1 μg/mouse) was 10.13 ± 4.31. For the same molecule, the “plasma PD1n-3 DPA concentration in mice, Mean ± SEM” value (1 μg/mouse) was 0.00 ± 0.00, the “plasma PDx concentration in mice, Mean ± SEM” value (1 μg/mouse) was 17.23 ± 1.32 and the “plasma RvD1 concentration in mice, Mean ± SEM” value (1 μg/mouse) was 1.39 ± 0.59. For the same molecule, the “plasma RvD1n-3 DPA concentration in mice, Mean ± SEM” value (1 μg/mouse) was 0.67 ± 0.35, the “plasma RvD2 concentration in mice, Mean ± SEM” value (1 μg/mouse) was 2.60 ± 1.05 and the “plasma RvD2n-3 DPA concentration in mice, Mean ± SEM” value (1 μg/mouse) was 4.54 ± 1.98. For the same molecule, the “plasma RvD3 concentration in mice, Mean ± SEM” value (1 μg/mouse) was 1.30 ± 0.56, the “plasma RvD4 concentration in mice, Mean ± SEM” value (1 μg/mouse) was 3.70 ± 0.70 and the “plasma RvD5 concentration in mice, Mean ± SEM” value (1 μg/mouse) was 1.64 ± 0.67. The “plasma RvD5n-3 DPA concentration in mice, Mean ± SEM” value (1 μg/mouse) was 4.02 ± 0.79, the “plasma RvD6 concentration in mice, Mean ± SEM” value (1 μg/mouse) was 1.72 ± 0.72 and the “plasma RvE1 concentration in mice, Mean ± SEM” value (1 μg/mouse) was 0.54 ± 0.25. The “plasma RvE2 concentration in mice, Mean ± SEM” value (1 μg/mouse) was 1.70 ± 0.52, the “plasma RvE3 concentration in mice, Mean ± SEM” value (1 μg/mouse) was 6.22 ± 1.39 and the “plasma RvT1 concentration in mice, Mean ± SEM” value (1 μg/mouse) was 10.18 ± 2.01. The “plasma RvT2 concentration in mice, Mean ± SEM” value (1 μg/mouse) was 0.00 ± 0.00, the “plasma RvT3 concentration in mice, Mean ± SEM” value (1 μg/mouse) was 0.63 ± 0.28 and the “plasma RvT4 concentration in mice, Mean ± SEM” value (1 μg/mouse) was 1.40 ± 0.64. The “plasma 4S,14S-diHDHA concentration in mice, Mean ± SEM” value (22 μg/mouse) was 1.43 ± 0.64, the “plasma 5S,15S-diHETE concentration in mice, Mean ± SEM” value (22 μg/mouse) was 12.65 ± 5.37 and the “plasma 7S,14S-diHDHA concentration in mice, Mean ± SEM” value (22 μg/mouse) was 22.10 ± 8.55. For the same molecule, the “plasma 7S,14S-diHDPA concentration in mice, Mean ± SEM” value (22 μg/mouse) was 0.64 ± 0.55, the “plasma 10S,17S-diHDPA concentration in mice, Mean ± SEM” value (22 μg/mouse) was 0.52 ± 0.45 and the “plasma 13,14-dehydro-15-oxo-LXA4 concentration in mice, Mean ± SEM” value (22 μg/mouse) was 0.20 ± 0.15. For the same molecule, the “plasma 14-oxo-MaR1 concentration in mice, Mean ± SEM” value (22 μg/mouse) was 0.81 ± 0.41, the “plasma 15-oxo-LXA4 concentration in mice, Mean ± SEM” value (22 μg/mouse) was 3.93 ± 1.01 and the “plasma 15R-LXA4 concentration in mice, Mean ± SEM” value (22 μg/mouse) was 6.20 ± 1.44. For the same molecule, the “plasma 15R-LXB4 concentration in mice, Mean ± SEM” value (22 μg/mouse) was 2.17 ± 0.89, the “plasma 17R-PD1 concentration in mice, Mean ± SEM” value (22 μg/mouse) was 1.41 ± 0.61 and the “plasma 17R-RvD1 concentration in mice, Mean ± SEM” value (22 μg/mouse) was 0.26 ± 0.30. The “plasma 17R-RvD3 concentration in mice, Mean ± SEM” value (22 μg/mouse) was 0.67 ± 0.65, the “plasma 22-OH-MaR1 concentration in mice, Mean ± SEM” value (22 μg/mouse) was 0.00 ± 0.00 and the “plasma 22-OH-PD1 concentration in mice, Mean ± SEM” value (22 μg/mouse) was 0.00 ± 0.00. The “plasma LXA4 concentration in mice, Mean ± SEM” value (22 μg/mouse) was 0.56 ± 0.15, the “plasma LXB4 concentration in mice, Mean ± SEM” value (22 μg/mouse) was 12.72 ± 1.68 and the “plasma MaR1 concentration in mice, Mean ± SEM” value (22 μg/mouse) was 37.97 ± 11.63. For the same molecule, the “plasma MaR1n-3 DPA concentration in mice, Mean ± SEM” value (22 μg/mouse) was 0.00 ± 0.00, the “plasma MaR2 concentration in mice, Mean ± SEM” value (22 μg/mouse) was 1.28 ± 0.72 and the “plasma PD1 concentration in mice, Mean ± SEM” value (22 μg/mouse) was 9.99 ± 2.47. For the same molecule, the “plasma PD1n-3 DPA concentration in mice, Mean ± SEM” value (22 μg/mouse) was 0.28 ± 0.24, the “plasma PDx concentration in mice, Mean ± SEM” value (22 μg/mouse) was 10.36 ± 2.79 and the “plasma RvD1 concentration in mice, Mean ± SEM” value (22 μg/mouse) was 0.14 ± 0.12. For the same molecule, the “plasma RvD1n-3 DPA concentration in mice, Mean ± SEM” value (22 μg/mouse) was 0.33 ± 0.48, the “plasma RvD2 concentration in mice, Mean ± SEM” value (22 μg/mouse) was 2.99 ± 0.66 and the “plasma RvD2n-3 DPA concentration in mice, Mean ± SEM” value (22 μg/mouse) was 3.72 ± 3.41. For the same molecule, the “plasma RvD3 concentration in mice, Mean ± SEM” value (22 μg/mouse) was 0.18 ± 0.66, the “plasma RvD4 concentration in mice, Mean ± SEM” value (22 μg/mouse) was 3.88 ± 0.55 and the “plasma RvD5 concentration in mice, Mean ± SEM” value (22 μg/mouse) was 0.00 ± 0.00. The “plasma RvD5n-3 DPA concentration in mice, Mean ± SEM” value (22 μg/mouse) was 0.00 ± 0.00, the “plasma RvD6 concentration in mice, Mean ± SEM” value (22 μg/mouse) was 0.00 ± 0.00 and the “plasma RvE1 concentration in mice, Mean ± SEM” value (22 μg/mouse) was 0.00 ± 0.00. The “plasma RvE2 concentration in mice, Mean ± SEM” value (22 μg/mouse) was 0.96 ± 0.22, the “plasma RvE3 concentration in mice, Mean ± SEM” value (22 μg/mouse) was 0.77 ± 0.64 and the “plasma RvT1 concentration in mice, Mean ± SEM” value (22 μg/mouse) was 9.49 ± 5.15. For the same molecule, the “plasma RvT2 concentration in mice, Mean ± SEM” value (22 μg/mouse) was 0.00 ± 0.00, the “plasma RvT3 concentration in mice, Mean ± SEM” value (22 μg/mouse) was 0.87 ± 0.48 and the “plasma RvT4 concentration in mice, Mean ± SEM” value (22 μg/mouse) was 2.07 ± 1.16. The “ALOX15-derived SPM including RvT1, RvT4 and RvD5n-3 DPA” value [1] was “upregulation” and the “peripheral blood SPM profile” value [1] was “dose-dependent shift”.
